Reference: ChEMBL document CHEMBL1141781, “Antineoplastic agents. 542. Isolation and structure of sesterstatin 6 from the Indian Ocean sponge Hyrtios erecta” (2005)
Values after ≈ are worked out from the molar mass of the structure shown.

Legend:
Format in all cases: functional
P388 = experiment: Growth inhibition of mouse P388 cells; conditions: read-out: ED50 (the source's name)
DU-145 = experiment: Growth inhibition of human DU145 cells
BXPC-3 = experiment: Growth inhibition of human BxPC3 cells
NCI-H460 = experiment: Growth inhibition of human NCI-H460 cells
FaDu = experiment: Growth inhibition of human FADU cells
[1] = Growth inhibition of human KAT4 cells; conditions: KAT-4
SW-1736 = experiment: Growth inhibition of human SW1736 cells
U-251 = experiment: Growth inhibition of human U251 cells
RPMI-7951 = experiment: Growth inhibition of human RPMI7951 cells

EC50 (P388)	GI50 (DU-145)	GI50 (BXPC-3)	GI50 (NCI-H460)	GI50 (SW-1736)	GI50 (U-251)	SMILES	GI50 (FaDu)	GI50 [1]	GI50 (RPMI-7951)
0.46 µg/mL (≈ 1.14 µM)	–	–	–	–	–	CC1(C)[C@@H](O)CC[C@]2(C)[C@H]3C[C@@H](O)[C@]4(C)C5=C(CC[C@H]4[C@]3(C)CC[C@@H]12)COC5=O [SESTERSTATIN 1]	–	–	–
4.2 µg/mL (≈ 10.4 µM)	–	–	–	–	–	C[C@]1(CO)CCC[C@]2(C)[C@H]3C[C@@H](O)[C@]4(C)C5=C(CC[C@H]4[C@]3(C)CC[C@@H]12)COC5=O [SESTERSTATIN 2]	–	–	–
4.3 µg/mL (≈ 10.7 µM)	–	–	–	–	–	C[C@@]1(CO)CCC[C@]2(C)[C@H]3C[C@@H](O)[C@]4(C)C5=C(CC[C@H]4[C@]3(C)CC[C@@H]12)COC5=O [SESTERSTATIN 3]	–	–	–
4.9 µg/mL (≈ 12.7 µM)	1.6 µg/mL (≈ 4.14 µM)	1.6 µg/mL (≈ 4.14 µM)	1.8 µg/mL (≈ 4.66 µM)	2.1 µg/mL (≈ 5.43 µM)	–	CC1(C)CCC[C@]2(C)[C@H]3C[C@@H](O)[C@]4(C)c5cocc5[C@H](O)C[C@H]4[C@]3(C)CC[C@@H]12 [SESTERSTATIN 4]	2 µg/mL (≈ 5.17 µM)	2 µg/mL (≈ 5.17 µM)	–
> 10 µg/mL	1.9 µg/mL (≈ 4.91 µM)	2.2 µg/mL (≈ 5.69 µM)	2.5 µg/mL (≈ 6.47 µM)	–	1.9 µg/mL (≈ 4.91 µM)	CC1(C)CCC[C@]2(C)[C@H]3C[C@@H](O)[C@]4(C)c5cocc5[C@@H](O)C[C@H]4[C@]3(C)CC[C@@H]12 [SESTERSTATIN 5]	1.9 µg/mL (≈ 4.91 µM)	–	2.1 µg/mL (≈ 5.43 µM)
0.17 µg/mL (≈ 0.406 µM)	0.37 µg/mL (≈ 0.884 µM)	0.44 µg/mL (≈ 1.05 µM)	0.18 µg/mL (≈ 0.43 µM)	0.87 µg/mL (≈ 2.08 µM)	–	CC1(C)CCC[C@]2(C)[C@H]3C[C@@H](O)[C@]4(C)C5=C(C(=O)O[C@H]5O)[C@@H](O)C[C@H]4[C@]3(C)CC[C@@H]12 [SESTERSTATIN 6]	0.89 µg/mL (≈ 2.13 µM)	0.4 µg/mL (≈ 0.956 µM)	–
